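Grown in 96-well plates, cells were treated for 48 hours with each compound at five concentrations. Insufficient inhibition: endpoint recorded as highest concentration tested. GI50: concentration for 50% inhibition of growth.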 The source made the active and inactive calls. Rule as the data show it: active = GI50 up to about 1.1 µM and inactive = higher.
Assays:
Assay in all cases: NCI tumour cell line growth inhibition, 48 h
[1] = system: RXF 393
[2] = system: T47D
[3] = system: Hs-578T
[4] = system: SK-OV-3
[5] = system: KM12
[6] = system: BT-549
[7] = system: M14
[8] = system: CAKI-1
[9] = system: A498
[10] = system: LOX IMVI
[11] = system: OVCAR-5
[12] = system: 786-0
[13] = system: SN12C
[14] = system: HOP-62
[15] = system: NCI-H226
[16] = system: MDA-N
[17] = system: UO-31
[18] = system: MDA-MB-435
[19] = system: PC-3
[20] = system: DU-145
[21] = system: SR
[22] = system: MCF7
[23] = system: NCI/ADR-RES
[24] = system: HOP-92
[25] = system: HL-60
[26] = system: SF-539
[27] = system: NCI-H460
[28] = system: ACHN
[29] = system: HCT-116
[30] = system: SF-268
[31] = system: U-251
[32] = system: HCC 2998
[33] = system: SK-MEL-2
[34] = system: CCRF-CEM
[35] = system: NCI-H23
[36] = system: OVCAR-4
[37] = system: SK-MEL-28
[38] = system: UACC-257
[39] = system: TK-10
[40] = system: HT-29
[41] = system: SF-295
[42] = system: UACC-62
[43] = system: MDA-MB-231
[44] = system: A549
[45] = system: NCI-H522
[46] = system: SNB-19
[47] = system: IGROV-1
[48] = system: OVCAR-3
[49] = system: K562
[50] = system: RPMI-8226
[51] = system: OVCAR-8
[52] = system: COLO 205
[53] = system: SK-MEL-5
[54] = system: HCT-15
[55] = system: SNB-75
[56] = system: SW-620
[57] = system: Malme-3M
[58] = system: MOLT-4
[59] = system: EKVX

How did the GI50 [1] turn out when `COC1=C(Br)C(O)C2(C=C1Br)CC(C(=O)NCCCCNC(=O)C1=NOC3(C=C(Br)C(OC)=C(Br)C3O)C1)=NO2` (stereo not given) was run?
Its GI50 is 24.8 µM (inactive).

What about the GI50 [2] of the same compound?
The GI50 was 11.4 µM (inactive).

What about the GI50 [3] of the same compound?
The GI50 was 12.4 µM (inactive).

And the GI50 [4]?
Its GI50 is 27.2 µM (inactive).

And the GI50 [5]?
The GI50 was 12.4 µM (inactive).

What about the GI50 [6] of the same compound?
The GI50 was 33.6 µM (inactive).

What about the GI50 [7] of the same compound?
Its GI50 is 15.5 µM (inactive).

What about the GI50 [8] of the same compound?
Its GI50 is 63.4 µM (inactive).

And the GI50 [9]?
Its GI50 is 31 µM (inactive).

And the GI50 [10]?
The GI50 was 17 µM (inactive).

And the GI50 [11]?
The GI50 was 50.4 µM (inactive).

What about the GI50 [12] of the same compound?
Its GI50 is 31.1 µM (inactive).

What about the GI50 [13] of the same compound?
The GI50 was 25.6 µM (inactive).

And the GI50 [14]?
The GI50 was 30.5 µM (inactive).

And the GI50 [15]?
The GI50 was 4.73 µM (inactive).

And the GI50 [16]?
The GI50 was 16.7 µM (inactive).

What about the GI50 [17] of the same compound?
Its GI50 is 43.2 µM (inactive).

What about the GI50 [18] of the same compound?
Its GI50 is 19.9 µM (inactive).

And the GI50 [19]?
The GI50 was 20.4 µM (inactive).

And the GI50 [20]?
The GI50 was 31.6 µM (inactive).

And the GI50 [21]?
The GI50 was 13.8 µM (inactive).

And the GI50 [22]?
The GI50 was 21.8 µM (inactive).

What about the GI50 [23] of the same compound?
The GI50 was 51.2 µM (inactive).

And the GI50 [24]?
Its GI50 is 26.2 µM (inactive).

And the GI50 [25]?
Its GI50 is 20.6 µM (inactive).

And the GI50 [26]?
The GI50 was 19.8 µM (inactive).

What about the GI50 [27] of the same compound?
The GI50 was 26.4 µM (inactive).

What about the GI50 [28] of the same compound?
The GI50 was 26.3 µM (inactive).

What about the GI50 [29] of the same compound?
Its GI50 is 18.2 µM (inactive).

What about the GI50 [30] of the same compound?
The GI50 was 13.5 µM (inactive).

And the GI50 [31]?
The GI50 was 25.8 µM (inactive).

And the GI50 [32]?
Its GI50 is 52.1 µM (inactive).

And the GI50 [33]?
The GI50 was 23.7 µM (inactive).

What about the GI50 [34] of the same compound?
The GI50 was 10.1 µM (inactive).

What about the GI50 [35] of the same compound?
Its GI50 is 40.5 µM (inactive).

What about the GI50 [36] of the same compound?
Its GI50 is 54.3 µM (inactive).

What about the GI50 [37] of the same compound?
Its GI50 is 25.5 µM (inactive).

What about the GI50 [38] of the same compound?
The GI50 was 16.3 µM (inactive).

What about the GI50 [39] of the same compound?
Its GI50 is 65.3 µM (inactive).

And the GI50 [40]?
The GI50 was 15.9 µM (inactive).

And the GI50 [41]?
Its GI50 is 25.1 µM (inactive).

What about the GI50 [42] of the same compound?
The GI50 was 31.8 µM (inactive).

And the GI50 [43]?
Its GI50 is 22.3 µM (inactive).

What about the GI50 [44] of the same compound?
Its GI50 is 30.6 µM (inactive).

And the GI50 [45]?
Its GI50 is 11.3 µM (inactive).

What about the GI50 [46] of the same compound?
The GI50 was 37.3 µM (inactive).

And the GI50 [47]?
The GI50 was 11.7 µM (inactive).

And the GI50 [48]?
Its GI50 is 15.6 µM (inactive).

What about the GI50 [49] of the same compound?
The GI50 was 16.3 µM (inactive).

And the GI50 [50]?
The GI50 was 8.99 µM (inactive).

What about the GI50 [51] of the same compound?
The GI50 was 20.3 µM (inactive).

And the GI50 [52]?
Its GI50 is 15.8 µM (inactive).

What about the GI50 [53] of the same compound?
The GI50 was 11.9 µM (inactive).

What about the GI50 [54] of the same compound?
The GI50 was 49 µM.

And the GI50 [55]?
Its GI50 is 16.9 µM (inactive).

What about the GI50 [56] of the same compound?
Its GI50 is 37.1 µM (inactive).

What about the GI50 [57] of the same compound?
Its GI50 is 16.4 µM (inactive).

What does the source list for `N=C(N)N/N=C\c1ccc(C2CCNCC2)cc1`?
GI50 [1]: > 100 µM (inactive); GI50 [2]: > 100 µM (inactive); GI50 [58]: > 100 µM (inactive); GI50 [3]: > 100 µM (inactive); GI50 [4]: > 100 µM (inactive); GI50 [5]: > 100 µM (inactive); GI50 [6]: > 100 µM (inactive); GI50 [7]: > 100 µM (inactive); GI50 [8]: > 100 µM (inactive); GI50 [59]: > 100 µM (inactive); GI50 [9]: > 100 µM (inactive); GI50 [10]: > 100 µM (inactive); GI50 [11]: > 100 µM (inactive); GI50 [12]: > 100 µM (inactive); GI50 [13]: > 100 µM (inactive); GI50 [14]: > 100 µM (inactive); GI50 [15]: > 100 µM (inactive); GI50 [16]: > 100 µM (inactive); GI50 [17]: > 100 µM (inactive); GI50 [18]: > 100 µM (inactive); GI50 [19]: > 100 µM (inactive); GI50 [20]: > 100 µM (inactive); GI50 [21]: > 100 µM (inactive); GI50 [22]: > 100 µM (inactive); GI50 [23]: > 100 µM (inactive); GI50 [24]: > 100 µM (inactive); GI50 [26]: > 100 µM (inactive); GI50 [27]: > 100 µM (inactive); GI50 [28]: > 100 µM (inactive); GI50 [29]: > 100 µM (inactive); GI50 [30]: > 100 µM (inactive); GI50 [31]: > 100 µM (inactive); GI50 [32]: > 100 µM (inactive); GI50 [33]: > 100 µM (inactive); GI50 [34]: > 100 µM (inactive); GI50 [35]: > 100 µM (inactive); GI50 [36]: > 100 µM (inactive); GI50 [37]: > 100 µM (inactive); GI50 [38]: > 100 µM (inactive); GI50 [39]: > 100 µM (inactive); GI50 [40]: > 100 µM (inactive); GI50 [41]: > 100 µM (inactive); GI50 [42]: > 100 µM (inactive); GI50 [43]: > 100 µM (inactive); GI50 [44]: > 100 µM (inactive); GI50 [45]: > 100 µM (inactive); GI50 [46]: > 100 µM (inactive); GI50 [47]: > 100 µM (inactive); GI50 [48]: > 100 µM (inactive); GI50 [49]: > 100 µM (inactive); GI50 [50]: > 100 µM (inactive); GI50 [51]: > 100 µM (inactive); GI50 [52]: > 100 µM (inactive); GI50 [53]: > 100 µM (inactive); GI50 [54]: > 100 µM; GI50 [55]: > 100 µM (inactive); GI50 [56]: > 100 µM (inactive); GI50 [57]: > 100 µM (inactive)

Reference: ChEMBL document CHEMBL1201862, “PubChem BioAssay data set” (2004)
